Measured values from the Kinase Knowledgebase extract (Sharma et al. 2016).

Each compound was assayed against EGFR (human) (UniProt P00533).
EGFR (human), sequence (P00533 whole entry, looked up): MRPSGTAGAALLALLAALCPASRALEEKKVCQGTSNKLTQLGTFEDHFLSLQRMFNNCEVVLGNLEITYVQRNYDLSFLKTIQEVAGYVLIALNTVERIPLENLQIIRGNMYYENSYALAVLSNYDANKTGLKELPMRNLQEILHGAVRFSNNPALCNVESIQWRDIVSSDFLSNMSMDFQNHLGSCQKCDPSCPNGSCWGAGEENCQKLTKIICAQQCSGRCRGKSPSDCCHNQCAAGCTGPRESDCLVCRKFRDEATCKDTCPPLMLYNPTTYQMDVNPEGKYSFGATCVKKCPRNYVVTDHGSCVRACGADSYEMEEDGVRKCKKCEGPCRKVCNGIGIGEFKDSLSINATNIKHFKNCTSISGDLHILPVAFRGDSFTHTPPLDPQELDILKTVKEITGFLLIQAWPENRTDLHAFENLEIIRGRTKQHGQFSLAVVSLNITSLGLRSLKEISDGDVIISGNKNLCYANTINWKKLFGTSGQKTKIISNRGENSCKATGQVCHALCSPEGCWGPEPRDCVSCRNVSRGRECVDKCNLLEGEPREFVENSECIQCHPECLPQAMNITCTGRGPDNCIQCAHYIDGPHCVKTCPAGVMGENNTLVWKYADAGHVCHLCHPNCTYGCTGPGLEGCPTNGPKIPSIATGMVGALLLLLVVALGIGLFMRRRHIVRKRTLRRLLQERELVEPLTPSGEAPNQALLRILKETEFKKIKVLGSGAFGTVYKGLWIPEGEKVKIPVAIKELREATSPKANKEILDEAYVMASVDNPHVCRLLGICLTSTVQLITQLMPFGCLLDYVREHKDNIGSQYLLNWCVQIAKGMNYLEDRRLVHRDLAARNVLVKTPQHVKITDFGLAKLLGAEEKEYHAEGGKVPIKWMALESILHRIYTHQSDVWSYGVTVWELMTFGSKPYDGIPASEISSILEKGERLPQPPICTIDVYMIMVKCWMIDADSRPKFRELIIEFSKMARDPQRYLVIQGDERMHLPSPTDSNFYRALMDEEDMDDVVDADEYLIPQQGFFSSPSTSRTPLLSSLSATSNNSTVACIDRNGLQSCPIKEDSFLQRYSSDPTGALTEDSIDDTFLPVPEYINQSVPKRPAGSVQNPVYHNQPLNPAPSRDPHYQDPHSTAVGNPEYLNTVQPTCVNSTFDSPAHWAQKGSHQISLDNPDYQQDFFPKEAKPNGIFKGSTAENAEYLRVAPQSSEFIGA

SMILES	IC50
COc1cccc(Nc2ncnc3cc(N)ncc23)c1	132 nM
CC(=O)Nc1cc2ncnc(Nc3cccc(Br)c3)c2cn1	29.5 nM
CN(C)c1cccc(Nc2ncnc3cc(N)ncc23)c1	1820 nM
COc1cc2ncnc(Nc3cccc(Br)c3)c2cn1	39.8 nM
Fc1cc2ncnc(Nc3cccc(Br)c3)c2cn1	13.2 nM
Nc1ccc2c(Nc3ccccc3)ncnc2c1	100 nM

More lines, in order of falling IC50, values ahead:

IC50	SMILES
851 nM	Nc1cc2ncnc(Nc3cccc(F)c3)c2cn1
245 nM	Nc1cc2ncnc(Nc3ccccc3Br)c2cn1
40.7 nM	Nc1cc2ncnc(Nc3cccc([N+](=O)[O-])c3)c2cn1
0.977 nM	COc1cc2ncnc(Nc3ccc(Br)cc3)c2cc1OC
